According to patent US9957268B2, “1H-pyrrolo[2,3,c]pyridin-7(6H)-ones and pyrazolo[3,4-c]pyridin-7(6H)-ones as inhibitors of BET proteins” (Incyte Corporation, priority 2014, dated 2018):

How the values were obtained:
BRD4-BD2 = BRD4-BD2 (Homo sapiens (Human), UniProt O60885); experiment: BRD4 AlphaScreen assay (BRD4-BD2); assay type: binding; conditions: biotin-labeled tetra-acetylated histone H4 peptide
Method: (§1) BRD4-BD1 and BRD4-BD2 assays were conducted in white 384-well polystyrene plate in a final volume of 40 μL for BD1 and 60 μL for BD2. Inhibitors were first serially diluted in DMSO and added to the plate wells before the addition of other reaction components. The final concentration of DMSO in the assay was 1.25% (BD1) and 0.83% (BD2). The assays were carried out at room temperature in the assay buffer (50 mM Tris-HCl, pH 7.5, 0.01% Tween-20, 0.01% BSA, 5 mM DTT), containing 50 nM Biotin-labeled tetra-acetylated histone H4 peptide (H4Ac4) and BRD4-BD1 or BRD4-BD2 protein at concentration less than 1 nM. The incubation for 75 min. was followed by the addition of 20 μL of assay buffer supplemented with Streptavidin donor beads (PerkinElmer 6760002) and GSH Acceptor beads (PerkinElmer-AL109C) at final concentration 2-4 μg/mL under reduced light. After plate sealing, the plate was incubated in the dark at room temperature for 75 min. before reading on a PHERAstar FS plate reader (BMG Labtech). IC50 determination was performed by fitting the curve of percent control activity versus the log of the inhibitor concentration using the GraphPad Prism 5.0 software.

BRD4-BD1 = BRD4-BD1 (Homo sapiens (Human), UniProt O60885); experiment: BRD4 AlphaScreen assay (BRD4-BD1); assay type: binding; conditions: biotin-labeled tetra-acetylated histone H4 peptide
Method: as §1

SMILES | IC50 (BRD4-BD2) | IC50 (BRD4-BD1)
CC(C)C1Oc2c(cc(S(C)(=O)=O)cc2-c2cn(C)c(=O)c3[nH]ccc23)NC1=O (stereo not shown) [Example 44, 2-isopropyl-8-(6-methyl-7-oxo-6,7-dihydro-1H-pyrrolo[2,3-c]pyridin-4-yl)-6-(methylsulfonyl)-2H-1,4-benzoxazin-3(4H)-one] | ≤ 100 nM | ≤ 100 nM
Cn1cc(-c2cc(S(C)(=O)=O)cc3c2OC(C)(C)C(=O)N3)c2cc[nH]c2c1=O [Example 45, 2,2-dimethyl-8-(6-methyl-7-oxo-6,7-dihydro-1H-pyrrolo[2,3-c]pyridin-4-yl)-6-(methylsulfonyl)-2H-1,4-benzoxazin-3(4H)-one] | ≤ 100 nM | ≤ 100 nM
Cn1cc(-c2cc(S(C)(=O)=O)cc3c2OC(c2ccccc2)C(=O)N3)c2cc[nH]c2c1=O (stereo not shown) [Example 46, 8-(6-methyl-7-oxo-6,7-dihydro-1H-pyrrolo[2,3-c]pyridin-4-yl)-6-(methylsulfonyl)-2-phenyl-2H-1,4-benzoxazin-3(4H)-one] | ≤ 100 nM | ≤ 100 nM
CC(C)C1Oc2c(-c3cn(C)c(=O)c4[nH]ccc34)cc(S(C)(=O)=O)cc2N(C)C1=O (stereo not shown) [Example 47, 2-isopropyl-4-methyl-8-(6-methyl-7-oxo-6,7-dihydro-1H-pyrrolo[2,3-c]pyridin-4-yl)-6-(methylsulfonyl)-2H-1,4-benzoxazin-3(4H)-one] | ≤ 100 nM | ≤ 100 nM
Cn1cc(-c2cc(S(C)(=O)=O)cc3c2OC(CCO)C(=O)N3)c2cc[nH]c2c1=O (stereo not shown) [Example 48, 2-(2-hydroxyethyl)-8-(6-methyl-7-oxo-6,7-dihydro-1H-pyrrolo[2,3-c]pyridin-4-yl)-6-(methylsulfonyl)-2H-1,4-benzoxazin-3(4H)-one] | ≤ 100 nM | ≤ 100 nM
CC(=O)c1cc2c(c(-c3cn(C)c(=O)c4[nH]ccc34)c1)OC(C(C)C)C(=O)N2 (stereo not shown) [Example 49, 6-acetyl-2-isopropyl-8-(6-methyl-7-oxo-6,7-dihydro-1H-pyrrolo[2,3-c]pyridin-4-yl)-2H-1,4-benzoxazin-3(4H)-one] | ≤ 100 nM | ≤ 100 nM
CC(O)c1cc2c(c(-c3cn(C)c(=O)c4[nH]ccc34)c1)OC(C(C)C)C(=O)N2 (stereo not shown) [Example 50, 6-(1-hydroxyethyl)-2-isopropyl-8-(6-methyl-7-oxo-6,7-dihydro-1H-pyrrolo[2,3-c]pyridin-4-yl)-2H-1,4-benzoxazin-3(4H)-one] | ≤ 100 nM | ≤ 100 nM
CCS(=O)(=O)c1cc2c(c(-c3cn(C)c(=O)c4[nH]ccc34)c1)OC(C(C)C)C(=O)N2 (stereo not shown) [Example 51, 6-(ethylsulfonyl)-2-isopropyl-8-(6-methyl-7-oxo-6,7-dihydro-1H-pyrrolo[2,3-c]pyridin-4-yl)-2H-1,4-benzoxazin-3(4H)-one] | ≤ 100 nM | ≤ 100 nM
CC(C)C1Oc2c(-c3cn(C)c(=O)c4[nH]ccc34)cc(S(C)(=O)=O)cc2N(CC2CC2)C1=O (stereo not shown) [Example 53, 4-(cyclopropylmethyl)-2-isopropyl-8-(6-methyl-7-oxo-6,7-dihydro-1H-pyrrolo[2,3-c]pyridin-4-yl)-6-(methyslulfonyl)-2H-1,4-benzoxazin-3(4H)-one] | ≤ 100 nM | ≤ 100 nM
CC(C)C1Oc2c(-c3cn(C)c(=O)c4[nH]ccc34)cc(S(=O)(=O)C(C)C)cc2N(C)C1=O (stereo not shown) [Example 56, 2-isopropyl-6-(isopropylsulfonyl)-4-methyl-8-(6-methyl-7-oxo-6,7-dihydro-1H-pyrrolo[2,3-c]pyridin-4-yl)-2H-1,4-benzoxazin-3(4H)-one] | ≤ 100 nM | ≤ 100 nM
Cn1cc(-c2cc(S(C)(=O)=O)cc3c2OC2(CC2)C(=O)N3)c2cc[nH]c2c1=O [Example 57, 8-(6-methyl-7-oxo-6,7-dihydro-1H-pyrrolo[2,3-c]pyridin-4-yl)-6-(methylsulfonyl)spiro[1,4-benzoxazine-2,1′-cyclopropan]-3(4H)-one] | ≤ 100 nM | ≤ 100 nM
Cn1cc(-c2cc(S(C)(=O)=O)cc3c2NC(C)(C)C(=O)N3)c2cc[nH]c2c1=O [Example 58, 3,3-dimethyl-5-(6-methyl-7-oxo-6,7-dihydro-1H-pyrrolo[2,3-c]pyridin-4-yl)-7-(methylsulfonyl)-3,4-dihydroquinoxalin-2(1H)-one] | ≤ 100 nM | ≤ 100 nM
Cn1cc(-c2cc(S(C)(=O)=O)cc3c2NC2(CCCC2)C(=O)N3)c2cc[nH]c2c1=O [Example 59, 8′-(6-methyl-7-oxo-6,7-dihydro-1H-pyrrolo[2,3-c]pyridin-4-yl)-6′-(methylsulfonyl)-1′,4′-dihydro-3′H-spiro[cyclopentane-1,2′-quinoxalin]-3′-one] | ≤ 100 nM | ≤ 100 nM
CC(C)[C@@H]1Nc2c(cc(S(C)(=O)=O)cc2-c2cn(C)c(=O)c3[nH]ccc23)NC1=O [Example 60, (3S)-3-isopropyl-5-(6-methyl-7-oxo-6,7-dihydro-1H-pyrrolo[2,3-c]pyridin-4-yl)-7-(methylsulfonyl)-3,4-dihydroquinoxalin-2(1H)-one] | ≤ 100 nM | ≤ 100 nM
CC(C)[C@H]1Nc2c(cc(S(C)(=O)=O)cc2-c2cn(C)c(=O)c3[nH]ccc23)NC1=O [Example 61, (3R)-3-isopropyl-5-(6-methyl-7-oxo-6,7-dihydro-1H-pyrrolo[2,3-c]pyridin-4-yl)-7-(methylsulfonyl)-3,4-dihydroquinoxalin-2(1H)-one] | ≤ 100 nM | ≤ 100 nM
Cn1cc(-c2cc(S(C)(=O)=O)cc3c2NC2(CCC2)C(=O)N3)c2cc[nH]c2c1=O [Example 62, 8′-(6-methyl-7-oxo-6,7-dihydro-1H-pyrrolo[2,3-c]pyridin-4-yl)-6′-(methylsulfonyl)-1′,4′-dihydro-3′H-spiro[cyclobutane-1,2′-quinoxalin]-3′-one] | ≤ 100 nM | ≤ 100 nM
CN1C(=O)C2(CC2)Oc2c(-c3cn(C)c(=O)c4[nH]ccc34)cc(S(C)(=O)=O)cc21 [Example 63, 4-methyl-8-(6-methyl-7-oxo-6,7-dihydro-1H-pyrrolo[2,3-c]pyridin-4-yl)-6-(methylsulfonyl)spiro[1,4-benzoxazine-2,1′-cyclopropan]-3(4H)-one] | ≤ 100 nM | ≤ 100 nM
Cn1cc(-c2cc(S(C)(=O)=O)cc3c2OC2(CC2)C(=O)N3)c2cn[nH]c2c1=O [Example 65, 8-(6-methyl-7-oxo-6,7-dihydro-1H-pyrazolo[3,4-c]pyridin-4-yl)-6-(methylsulfonyl)spiro[1,4-benzoxazine-2,1′-cyclopropan]-3(4H)-one] | ≤ 100 nM | ≤ 100 nM
CN1C(=O)C2(CC2)Oc2c(-c3cn(C)c(=O)c4[nH]ncc34)cc(S(C)(=O)=O)cc21 [Example 66, 4-methyl-8-(6-methyl-7-oxo-6,7-dihydro-1H-pyrazolo[3,4-c]pyridin-4-yl)-6-(methylsulfonyl)spiro[1,4-benzoxazine-2,1′-cyclopropan]-3(4H)-one] | ≤ 100 nM | ≤ 100 nM
CNS(=O)(=O)c1cc2c(c(-c3cn(C)c(=O)c4[nH]ccc34)c1)OC(C(C)C)C(=O)N2 (stereo not shown) [Example 68, 2-isopropyl-N-methyl-8-(6-methyl-7-oxo-6,7-dihydro-1H-pyrrolo[2,3-c]pyridin-4-yl)-3-oxo-3,4-dihydro-2H-1,4-benzoxazine-6-sulfonamide] | ≤ 100 nM | ≤ 100 nM
